US20090176817A1, “Method of Treatment of Diarrhea-Predominant Irritable Bowel Syndrome in a Subject” (priority 2005, published 2009)

Tested on: diarrhea-predominant IBS subjects
Assay: Study S241.3.009: weekly diary questions on adequate relief
Assay type: in vivo, human
Details: ITT, 2 mg TID; for Number of months a subject was a responder: Three months (IBS symptoms) / Number of months a subject was a responder: Two months (Abdominal pain/discomfort) / Number of months a subject was a responder: Two months (Abnormal bowel habits) / Number of months a subject was a responder: Two months (IBS symptoms) / Number of months a subject was a responder: Zero months (Abdominal pain/discomfort) / Number of months a subject was a responder: Zero months (Abnormal bowel habits) / Number of months a subject was a responder: Zero months (IBS symptoms) / Number of months a subject was a responder: One month (Abdominal pain/discomfort) / Number of months a subject was a responder: One month (Abnormal bowel habits) / Number of months a subject was a responder: One month (IBS symptoms) / Number of months a subject was a responder: Three months (Abdominal pain/discomfort) / Number of months a subject was a responder: Three months (Abnormal bowel habits): Months 1 to 3, monthly LOCF; for Overall responder rate, adequate relief of IBS symptoms / Overall responder rate, adequate relief of abdominal pain/discomfort / Overall responder rate, adequate relief of abnormal bowel habits: 26-week treatment period, observed case
Experimental: Study S241.3.009 was a Phase III, a double-blind, placebo-controlled, randomized, multinational study to investigate the safety and efficacy of 2 mg TID of cilansetron over 26 weeks in diarrhea-predominant IBS subjects. The study was conducted in 146 multinational study centers. A total of 1307 subjects consented to participate, and 806 subjects were randomized. A total of 792 subjects were analyzed for efficacy and 799 subjects were analyzed for safety. Diagnosis and main criteria for inclusion were IBS subjects satisfying the Rome I criteria (1992); the diarrhea-predominant sub-population of the Rome II criteria; and a minimum abdominal pain/discomfort, stool frequency and consistency determined during the run-in period. Subjects were treated with cilansetron 2 mg tablets given orally TID or matching placebo tablets given orally TID for 26 weeks.
The primary efficacy parameter was the overall response rate for IBS symptoms, based on the weekly question concerning adequate relief of IBS symptoms (abdominal pain/discomfort, abnormal bowel habits) over the 26 weeks period. A responder was a subject who responded “yes” at least 50% of the time during his/her treatment period, with minimum treatment duration of four weeks. The two main secondary efficacy parameters were overall responder rate based on the weekly question on adequate relief of abdominal pain/discomfort and abnormal bowel habits during the 26-week treatment period. The onset of action of cilansetron was also examined using daily diary data (stool frequency, and ratings of urgency and severity) during the initial 8 weeks of trial participation. An additional key secondary efficacy parameter was the number of months (one month equals four weeks) up to six months (24-weeks) that a subject was a responder for IBS symptoms, where a responder was defined as a subject who answered the weekly question with “yes” at least twice for that month. The responder rate for the weekly diary questions on adequate relief at each month and all months, the adequate relief rate, the number of subjects with adequate relief by week, daily diary questions, IBS-QOL scores, and the interruption of activities were also assessed. Safety was evaluated by physical examination, ECG, vital signs, laboratory evaluations, concomitant medications, and AEs.
Studies S24 1.3.OO6, S24 1.3.0 1 1, and S24 1.3.009 used the following efficacy measurements: • The subjects answered the following three questions with “yes” or “no” using a phone diary at the end of each week: • a) During the last week, did you experience adequate relief of your IBS symptoms, such as abdominal pain, abdominal discomfort, abnormal bowel habits? • b) During the last week, did you experience adequate relief of your abdominal pain and/or discomfort? • c) During the last week, did you experience adequate relief of your abnormal bowel habits? • The subjects rated the following symptoms using the phone diary at the end of each day: • abdominal pain/discomfort (five-point scale); • stool consistency (seven-point Bristol Stool Scale); • stool frequency (number of bowel movements each day); • urgency (five-point scale); • straining (yes or no); • feeling of incomplete defecation (yes or no); • bloating or feeling of abdominal distension (five-point scale). • In Studies S241 A006 and S241.3.009, subjects completed the IBS-QOL Survey at Baseline (Day 1) and at the end of treatment. In Study S24 1.3.0 1 1, subjects completed the IBS-QOL Survey at Baseline (Day 1), at the end of the three-month treatment period, and at the end of rerandomized treatment.
In all three pivotal efficacy studies, the primary and main secondary efficacy parameters were based on the weekly diary questions on adequate relief and included the following: • 1. Number of months (one month equals four weeks) that a subject was a responder for the weekly diary questions on adequate relief. […]

[1] = Baseline severity of IBS: non-severe
[2] = Baseline severity of IBS: severe
[3] = Duration of IBS: >24 months to ≦48 months, monthly LOCF imputation

`Cc1nccn1C[C@H]1CCc2c(c3cccc4c3n2CCC4)C1=O` [Cilansetron, (R)-(−)-4,5,6,8,9,10-hexahydro-10-[(2-methyl-1H-imidazol-1-yl)methyl]-11H-pyrido-[3,2,1-jk]-carbazol-11-one] was tested, and the “Number of months a subject was a responder: Three months (IBS symptoms)” value (shortened to “Number … Three months (IBS symptoms)”) (Baseline BMI: <30 kg/m^2) was 131 (40) n (%), the “Number of months a subject was a responder: Two months (Abdominal pain/discomfort)” value (“Number … Two months (Abdominal pain/discomfort)” below) (Baseline BMI: <30 kg/m^2) was 58 (18) n (%) and the “Number of months a subject was a responder: Two months (Abnormal bowel habits)” value (“Number … Two months (Abnormal bowel habits)” for short) (Baseline BMI: <30 kg/m^2) was 69 (21) n (%). For the same compound, the “Number of months a subject was a responder: Two months (IBS symptoms)” value (from here on “Number … Two months (IBS symptoms)”) (Baseline BMI: <30 kg/m^2) was 64 (19) n (%), the “Number of months a subject was a responder: Zero months (Abdominal pain/discomfort)” value (“Number … Zero months (Abdominal pain/discomfort)” for short) (Baseline BMI: <30 kg/m^2) was 82 (25) n (%) and the “Number of months a subject was a responder: Zero months (Abnormal bowel habits)” value (shortened to “Number … Zero months (Abnormal bowel habits)”) (Baseline BMI: <30 kg/m^2) was 78 (24) n (%). For the same compound, the “Number of months a subject was a responder: Zero months (IBS symptoms)” value (“Number … Zero months (IBS symptoms)” below) (Baseline BMI: <30 kg/m^2) was 86 (26) n (%), the “Overall responder rate, adequate relief of IBS symptoms” value (Baseline BMI: ≧30 kg/m^2) was 27 (42) n (%) and the “Overall responder rate, adequate relief of abdominal pain/discomfort” value (Baseline BMI: ≧30 kg/m^2) was 32 (49) n (%). For the same compound, the “Overall responder rate, adequate relief of abnormal bowel habits” value (Baseline BMI: ≧30 kg/m^2) was 33 (51) n (%), the “Number of months a subject was a responder: One month (Abdominal pain/discomfort)” value (“Number … One month (Abdominal pain/discomfort)” for short) (Baseline BMI: ≧30 kg/m^2) was 10 (15) n (%) and the “Number of months a subject was a responder: One month (Abnormal bowel habits)” value (“Number … One month (Abnormal bowel habits)” for short) (Baseline BMI: ≧30 kg/m^2) was 10 (15) n (%). The “Number of months a subject was a responder: One month (IBS symptoms)” value (“Number … One month (IBS symptoms)” for short) (Baseline BMI: ≧30 kg/m^2) was 6 (9) n (%), the “Number of months a subject was a responder: Three months (Abdominal pain/discomfort)” value (Baseline BMI: ≧30 kg/m^2) was 20 (31) n (%) and the “Number of months a subject was a responder: Three months (Abnormal bowel habits)” value (“Number … Three months (Abnormal bowel habits)” below) (Baseline BMI: ≧30 kg/m^2) was 21 (32) n (%). The “Number … Three months (IBS symptoms)” value (Baseline BMI: ≧30 kg/m^2) was 19 (29) n (%), the “Number … Two months (Abdominal pain/discomfort)” value (Baseline BMI: ≧30 kg/m^2) was 12 (18) n (%) and the “Number … Two months (Abnormal bowel habits)” value (Baseline BMI: ≧30 kg/m^2) was 14 (22) n (%). For the same compound, the “Number … Two months (IBS symptoms)” value (Baseline BMI: ≧30 kg/m^2) was 16 (25) n (%), the “Number … Zero months (Abdominal pain/discomfort)” value (Baseline BMI: ≧30 kg/m^2) was 23 (35) n (%) and the “Number … Zero months (Abnormal bowel habits)” value (Baseline BMI: ≧30 kg/m^2) was 20 (31) n (%). The “Number … Zero months (IBS symptoms)” value (Baseline BMI: ≧30 kg/m^2) was 24 (37) n (%), the “Overall responder rate, adequate relief of IBS symptoms” value [1] was 149 (61) n (%) and the “Overall responder rate, adequate relief of abdominal pain/discomfort” value [1] was 150 (61) n (%). For the same compound, the “Overall responder rate, adequate relief of abnormal bowel habits” value [1] was 161 (65) n (%), the “Number … One month (Abdominal pain/discomfort)” value [1] was 42 (17) n (%) and the “Number … One month (Abnormal bowel habits)” value [1] was 31 (13) n (%). The “Number … One month (IBS symptoms)” value [1] was 37 (15) n (%), the “Number of months a subject was a responder: Three months (Abdominal pain/discomfort)” value [1] was 102 (41) n (%) and the “Number … Three months (Abnormal bowel habits)” value [1] was 104 (42) n (%). The “Number … Three months (IBS symptoms)” value [1] was 95 (39) n (%), the “Number … Two months (Abdominal pain/discomfort)” value [1] was 41 (17) n (%) and the “Number … Two months (Abnormal bowel habits)” value [1] was 54 (22) n (%). For the same compound, the “Number … Two months (IBS symptoms)” value [1] was 51 (21) n (%), the “Number … Zero months (Abdominal pain/discomfort)” value [1] was 61 (25) n (%) and the “Number … Zero months (Abnormal bowel habits)” value [1] was 57 (23) n (%). The “Number … Zero months (IBS symptoms)” value [1] was 63 (26) n (%), the “Overall responder rate, adequate relief of IBS symptoms” value [2] was 84 (57) n (%) and the “Overall responder rate, adequate relief of abdominal pain/discomfort” value [2] was 88 (59) n (%). The “Overall responder rate, adequate relief of abnormal bowel habits” value [2] was 91 (61) n (%), the “Number … One month (Abdominal pain/discomfort)” value [2] was 19 (13) n (%) and the “Number … One month (Abnormal bowel habits)” value [2] was 18 (12) n (%). The “Number … One month (IBS symptoms)” value [2] was 18 (12) n (%), the “Number of months a subject was a responder: Three months (Abdominal pain/discomfort)” value [2] was 56 (38) n (%) and the “Number … Three months (Abnormal bowel habits)” value [2] was 60 (41) n (%). The “Number … Three months (IBS symptoms)” value [2] was 54 (36) n (%), the “Number … Two months (Abdominal pain/discomfort)” value [2] was 29 (20) n (%) and the “Number … Two months (Abnormal bowel habits)” value [2] was 29 (20) n (%). The “Number … Two months (IBS symptoms)” value [2] was 29 (20) n (%), the “Number … Zero months (Abdominal pain/discomfort)” value [2] was 44 (30) n (%) and the “Number … Zero months (Abnormal bowel habits)” value [2] was 41 (28) n (%). For the same compound, the “Number … Zero months (IBS symptoms)” value [2] was 47 (32) n (%), the “Number of months a subject was a responder during Months 1 to 3: Abdominal pain/discomfort, One month” value [3] was 14 (15) n (%) and the “Number of months a subject was a responder during Months 1 to 3: Abdominal pain/discomfort, Three months” value [3] was 37 (39) n (%). For the same compound, the “Number of months a subject was a responder during Months 1 to 3: Abdominal pain/discomfort, Two months” value [3] was 19 (20) n (%), the “Number of months a subject was a responder during Months 1 to 3: Abdominal pain/discomfort, Zero months” value [3] was 26 (27) n (%) and the “Number of months a subject was a responder during Months 1 to 3: Abnormal bowel habits, One month” value [3] was 11 (11) n (%). For the same compound, the “Number of months a subject was a responder during Months 1 to 3: Abnormal bowel habits, Three months” value [3] was 36 (38) n (%), the “Number of months a subject was a responder during Months 1 to 3: Abnormal bowel habits, Two months” value [3] was 25 (26) n (%) and the “Number of months a subject was a responder during Months 1 to 3: Abnormal bowel habits, Zero months” value [3] was 24 (25) n (%).
